Assays:
[1] = system: Anabaena PCC7120; assay: Biodegradation in BG-11 medium in the presence of Anabaena cells (LC-MS); settings: 0.1 mM, in the presence of cyanobacteria
Experimental: (§1) Ornidazole (molecular mass 220 and 222 due to two isotopes of chlorine) or degradation products were sought by LC-MS. The chromatograms of samples from the first and fourth days are shown in FIG. 7B and FIG. 7C, respectively. The retention time and molecular mass of the isolated molecules are designated.
(§2) The concentrations of Ornidazole and its degradation product in the medium were determined during the growth of the cyanobacterium Anabaena PCC7120 and in media lacking cyanobacteria in the dark or under illumination. Ornidazole at 0.1 mM concentration was added to three growth tubes containing BG-11 medium: one growth tube was kept in the dark, the second under light conditions of 60 μmol photons m^−2 sec^−1 and the third tube, to which Anabaena cells were added, was also kept under similar light conditions. Samples from each tube were taken every day, separated on a C18 reverse phase HPLC column, and Ornidazole (molecular mass 220 and 222 due to two isotopes of chlorine) or degradation products were sought by LC-MS. A degradation product of molecular mass 184, identified as C7H9N3O3, was found in all three tubes.

[2] = Stability in BG-11 medium lacking cells (LC-MS); format: physicochemical; settings: 0.1 mM, dark or light, four days
Experimental: as §1, §2

Cc1ncc([N+](=O)[O-])n1CC(O)CCl (stereo not drawn) [Ornidazole, 1-chloro-3-(2-methyl-5-nitro-1H-imidazol-1-yl)propan-2-ol]
Ornidazole remaining, of its initial concentration ([1]; after four days of incubation): 10% | Ornidazole detection in medium ([1]; after seven days): could no longer be detected | Ornidazole concentration in medium [2]: remained stable

Source: patent US9237750B2, “Ornidazole and related compounds for use as herbicides” (RAMOT AT TEL-AVIV UNIVERSITY LTD., priority 2012, dated 2016)
